In patent US20260226086A1, “COMPOUNDS AND COMPOSITIONS AS STAT3 DEGRADERS AND USES THEREOF” (REGENTS OF THE UNIVERSITY OF MICHIGAN, priority 2023, published 2026):

Tests used:
Assay type in all cases: cell-based
STAT3 = molecular target: T1, STAT3 (Homo sapiens, UniProt P40763); assay: HiBiT assay, STAT3 degradation in STAT3-HiBiT KI HeLa cells; settings: 24 h; for DC50: read-out: STAT3 Degradation (HeLa 24 h HiBit) DC50
T1 construct: This cell line is a clone created by using CRISPR-Cas9 to fuse HiBiT to the 3′ end of STAT3 in HeLa cells; host or cells: STAT3-HiBiT KI HeLa cell line (CRISPR-Cas9 knock-in clone)
Method in brief: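 HeLa cells with CRISPR knock-in of HiBiT at the STAT3 C-terminus, 20000 cells/well, treated with serial compound dilutions for 24 h at 37 °C, 5% CO2. Remaining STAT3 read by Nano-Glo HiBiT lytic luminescence versus untreated cells; IC50 from four-parameter nonlinear fit of triplicate means.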

SU-DHL-1 cells = assay: CellTiter-Glo 2.0 cell viability assay, SU-DHL-1; settings: 4 days
Method in brief: (§1)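 1000 cells per well exposed to serially diluted compounds for 4 days at 37 °C, 5% CO2. Viability measured by CellTiter-Glo 2.0 luminescence versus untreated cells; IC50 from four-parameter nonlinear fit of triplicate means.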

SUP-M2 cells = assay: CellTiter-Glo 2.0 cell viability assay, SUP-M2; settings: 4 days
Method in brief: as §1

T1 sequence (P40763 whole entry): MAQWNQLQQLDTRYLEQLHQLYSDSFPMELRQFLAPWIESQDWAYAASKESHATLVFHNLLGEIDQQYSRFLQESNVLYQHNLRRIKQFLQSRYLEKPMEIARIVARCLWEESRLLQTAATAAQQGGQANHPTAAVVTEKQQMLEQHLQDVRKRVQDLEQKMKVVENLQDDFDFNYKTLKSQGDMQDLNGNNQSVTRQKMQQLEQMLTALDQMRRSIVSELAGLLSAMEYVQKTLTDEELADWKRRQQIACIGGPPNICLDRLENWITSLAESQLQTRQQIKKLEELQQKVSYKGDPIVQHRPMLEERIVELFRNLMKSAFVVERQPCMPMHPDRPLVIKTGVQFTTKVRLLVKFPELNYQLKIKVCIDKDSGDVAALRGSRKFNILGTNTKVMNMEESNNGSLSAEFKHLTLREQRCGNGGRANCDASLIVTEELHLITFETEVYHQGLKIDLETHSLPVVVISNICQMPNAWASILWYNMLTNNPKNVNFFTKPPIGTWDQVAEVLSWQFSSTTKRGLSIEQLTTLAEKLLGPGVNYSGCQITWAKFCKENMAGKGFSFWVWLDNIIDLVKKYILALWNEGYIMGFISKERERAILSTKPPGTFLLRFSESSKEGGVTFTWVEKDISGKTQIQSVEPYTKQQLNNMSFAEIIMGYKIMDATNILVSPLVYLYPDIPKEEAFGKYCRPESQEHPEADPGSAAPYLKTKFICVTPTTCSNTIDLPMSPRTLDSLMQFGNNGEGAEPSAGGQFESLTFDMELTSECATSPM

Row | Compound | DC50 (STAT3) | IC50 (SU-DHL-1 cells; Homo sapiens, 96 h) | IC50 (SUP-M2 cells; SUP-M2, 96 h) | Dmax at 1 µM (STAT3) | IC50 (SU-DHL-1 cells) | IC50 (SUP-M2 cells)
1 | Cc1ncsc1-c1ccc([C@H](C)NC(=O)[C@@H]2C[C@@H](O)CN2C(=O)[C@@H](NC(=O)CCCCCCC(=O)N2CC[C@H]3CC[C@@H](C(=O)N[C@@H](CCC(N)=O)C(=O)NC(c4ccccc4)c4ccccc4)N3C(=O)[C@@H](NC(=O)c3cc4cc(C(=O)P(=O)(O)O)ccc4[nH]3)C2)C(C)(C)C)cc1 [Compound 51, (2-(((5S,8S,10aR)-8-(((S)-5-amino-1-(benzhydrylamino)-1,5-dioxopentan-2-yl)carbamoyl)-3-(8-(((S)-1-((2S,4R)-4-hydroxy-2-(((S)-1-(4-(4-methylthiazol-5-yl)phenyl)ethyl)carbamoyl)pyrrolidin-1-yl)-3,3-dimethyl-1-oxobutan-2-yl)amino)-8-oxooctanoyl)-6-oxodecahydropyrrolo[1,2-a][1,5]diazocin-5-yl)carbamoyl)-1H-indole-5-carbonyl)phosphonic acid] | 0.1 to 1 µM | 0.1 to 1 µM | 0.1 to 1 µM |  |  | 
2 | Cc1ncsc1-c1ccc([C@H](C)NC(=O)[C@@H]2C[C@@H](O)CN2C(=O)[C@@H](n2cc(CCC(=O)N3CC[C@H]4CC[C@@H](C(=O)N[C@@H](CCC(N)=O)C(=O)NC(c5ccccc5)c5ccccc5)N4C(=O)[C@@H](NC(=O)c4cc5cc(C(=O)P(=O)(O)O)ccc5[nH]4)C3)nn2)C(C)(C)C)cc1 [Compound 55, (2-(((5S,8S,10aR)-8-(((S)-5-amino-1-(benzhydrylamino)-1,5-dioxopentan-2-yl)carbamoyl)-3-(3-(1-((S)-1-((2S,4R)-4-hydroxy-2-(((S)-1-(4-(4-methylthiazol-5-yl)phenyl)ethyl)carbamoyl)pyrrolidin-1-yl)-3,3-dimethyl-1-oxobutan-2-yl)-1H-1,2,3-triazol-4-yl)propanoyl)-6-oxodecahydropyrrolo[1,2-a][1,5]diazocin-5-yl)carbamoyl)-1H-indole-5-carbonyl)phosphonic acid] | > 1 µM | > 1 µM | > 1 µM |  |  | 
3 | Cc1ncsc1-c1ccc([C@H](C)NC(=O)[C@@H]2C[C@@H](O)CN2C(=O)[C@@H](n2cc(CCCC(=O)N3CC[C@H]4CC[C@@H](C(=O)N[C@@H](CCC(N)=O)C(=O)NC(c5ccccc5)c5ccccc5)N4C(=O)[C@@H](NC(=O)c4cc5cc(C(=O)P(=O)(O)O)ccc5[nH]4)C3)nn2)C(C)(C)C)cc1 [Compound 56, (2-(((5S,8S,10aR)-8-(((S)-5-amino-1-(benzhydrylamino)-1,5-dioxopentan-2-yl)carbamoyl)-3-(4-(1-((S)-1-((2S,4R)-4-hydroxy-2-(((S)-1-(4-(4-methylthiazol-5-yl)phenyl)ethyl)carbamoyl)pyrrolidin-1-yl)-3,3-dimethyl-1-oxobutan-2-yl)-1H-1,2,3-triazol-4-yl)butanoyl)-6-oxodecahydropyrrolo[1,2-a][1,5]diazocin-5-yl)carbamoyl)-1H-indole-5-carbonyl)phosphonic acid] | > 1 µM | 0.1 to 1 µM | 0.1 to 1 µM |  |  | 
4 | CCS(=O)(=O)c1ccc(CNC(=O)[C@H](CCC(N)=O)NC(=O)[C@@H]2CC[C@@H]3CCN(C(=O)CCCCc4cn([C@H](C(=O)N5C[C@H](O)C[C@H]5C(=O)N[C@@H](CCN5CCOCC5)c5ccc(-c6scnc6C)cc5)C(C)(C)C)nn4)C[C@H](NC(=O)c4cc5cc(C(=O)P(=O)(O)O)ccc5[nH]4)C(=O)N32)cc1 [Compound 17, (2-(((5S,8S,10aR)-8-(((S)-5-amino-1-((4-(ethylsulfonyl)benzyl)amino)-1,5-dioxopentan-2-yl)carbamoyl)-3-(5-(1-((S)-1-((2S,4R)-4-hydroxy-2-(((S)-1-(4-(4-methylthiazol-5-yl)phenyl)-3-morpholinopropyl)carbamoyl)pyrrolidin-1-yl)-3,3-dimethyl-1-oxobutan-2-yl)-1H-1,2,3-triazol-4-yl)pentanoyl)-6-oxodecahydropyrrolo[1,2-a][1,5]diazocin-5-yl)carbamoyl)-1H-indole-5-carbonyl)phosphonic acid] | 0.1 to 1 µM | 0.1 to 1 µM | 0.1 to 1 µM | > 80% |  | 
5 | COCCOCCOCCOCCN1CC[C@H]2CC[C@@H](C(=O)N[C@@H](CCC(N)=O)COc3cccc(CCCc4cn([C@H](C(=O)N5C[C@H](O)C[C@H]5C(=O)N[C@@H](C)c5ccc(-c6scnc6C)cc5)C(C)(C)C)nn4)c3Cl)N2C(=O)[C@@H](NC(=O)c2cc3cc(C(=O)P(=O)(O)O)ccc3[nH]2)C1 [Compound 31, (2-(((5S,8S,10aR)-8-(((S)-5-amino-1-(2-chloro-3-(3-(1-((S)-1-((2S,4R)-4-hydroxy-2-(((S)-1-(4-(4-methylthiazol-5-yl)phenyl)ethyl)carbamoyl)pyrrolidin-1-yl)-3,3-dimethyl-1-oxobutan-2-yl)-1H-1,2,3-triazol-4-yl)propyl)phenoxy)-5-oxopentan-2-yl)carbamoyl)-6-oxo-3-(2,5,8,11-tetraoxatridecan-13-yl)decahydropyrrolo[1,2-a][1,5]diazocin-5-yl)carbamoyl)-1H-indole-5-carbonyl)phosphonic acid] | 0.01 to 0.1 µM | 0.01 to 0.1 µM | 0.01 to 0.1 µM | > 80% |  | 
6 | Cc1ncsc1-c1ccc([C@H](C)NC(=O)[C@@H]2C[C@@H](O)CN2C(=O)[C@@H](n2cc(CCCc3cccc(OC[C@H](CCC(N)=O)NC(=O)[C@@H]4CC[C@@H]5CCN(C(=O)C6CCN(C)CC6)C[C@H](NC(=O)c6cc7cc(C(=O)P(=O)(O)O)ccc7[nH]6)C(=O)N54)c3Cl)nn2)C(C)(C)C)cc1 [Compound 32, (2-(((5S,8S,10aR)-8-(((S)-5-amino-1-(2-chloro-3-(3-(1-((S)-1-((2S,4R)-4-hydroxy-2-(((S)-1-(4-(4-methylthiazol-5-yl)phenyl)ethyl)carbamoyl)pyrrolidin-1-yl)-3,3-dimethyl-1-oxobutan-2-yl)-1H-1,2,3-triazol-4-yl)propyl)phenoxy)-5-oxopentan-2-yl)carbamoyl)-3-(1-methylpiperidine-4-carbonyl)-6-oxodecahydropyrrolo[1,2-a][1,5]diazocin-5-yl)carbamoyl)-1H-indole-5-carbonyl)phosphonic acid] | 0.01 to 0.1 µM | 0.01 to 0.1 µM | 0.1 to 1 µM | > 80% |  | 
7 | CCS(=O)(=O)c1ccc(CNC(=O)[C@H](CCC(N)=O)NC(=O)[C@@H]2CC[C@@H]3CCN(C(=O)CCCCCc4cn([C@H](C(=O)N5C[C@H](O)C[C@H]5C(=O)N[C@@H](C)c5ccc(-c6scnc6C)cc5)C(C)(C)C)nn4)C[C@H](NC(=O)c4cc5cc(C(=O)P(=O)(O)O)ccc5[nH]4)C(=O)N32)cc1 [Compound 14, (2-(((5S,8S,10aR)-8-(((S)-5-amino-1-((4-(ethylsulfonyl)benzyl)amino)-1,5-dioxopentan-2-yl)carbamoyl)-3-(6-(1-((S)-1-((2S,4R)-4-hydroxy-2-(((S)-1-(4-(4-methylthiazol-5-yl)phenyl)ethyl)carbamoyl)pyrrolidin-1-yl)-3,3-dimethyl-1-oxobutan-2-yl)-1H-1,2,3-triazol-4-yl)hexanoyl)-6-oxodecahydropyrrolo[1,2-a][1,5]diazocin-5-yl)carbamoyl)-1H-indole-5-carbonyl)phosphonic acid] | < 0.01 µM | < 0.01 µM | < 0.01 µM | > 80% |  | 
8 | Cc1ncsc1-c1ccc([C@H](C)NC(=O)[C@@H]2C[C@@H](O)CN2C(=O)[C@@H](n2cc(CCCCC(=O)N3CC[C@H]4CC[C@@H](C(=O)N[C@@H](CCC(N)=O)C(=O)NC(c5ccccc5)c5ccccc5)N4C(=O)[C@@H](NC(=O)c4cc5cc(C(=O)P(=O)(O)O)ccc5[nH]4)C3)nn2)C(C)(C)C)cc1 [Compound 57, (2-(((5S,8S,10aR)-8-(((S)-5-amino-1-(benzhydrylamino)-1,5-dioxopentan-2-yl)carbamoyl)-3-(5-(1-((S)-1-((2S,4R)-4-hydroxy-2-(((S)-1-(4-(4-methylthiazol-5-yl)phenyl)ethyl)carbamoyl)pyrrolidin-1-yl)-3,3-dimethyl-1-oxobutan-2-yl)-1H-1,2,3-triazol-4-yl)pentanoyl)-6-oxodecahydropyrrolo[1,2-a][1,5]diazocin-5-yl)carbamoyl)-1H-indole-5-carbonyl)phosphonic acid] | 0.1 to 1 µM |  |  |  | 0.1 to 1 µM | 0.1 to 1 µM
9 | Cc1ncsc1-c1ccc([C@H](C)NC(=O)[C@@H]2C[C@@H](O)CN2C(=O)[C@@H](NC(=O)CC(=O)N2CC[C@H]3CC[C@@H](C(=O)N[C@@H](CCC(N)=O)C(=O)NC(c4ccccc4)c4ccccc4)N3C(=O)[C@@H](NC(=O)c3cc4cc(C(=O)P(=O)(O)O)ccc4[nH]3)C2)C(C)(C)C)cc1 [Compound 46, (2-(((5S,8S,10aR)-8-(((S)-5-amino-1-(benzhydrylamino)-1,5-dioxopentan-2-yl)carbamoyl)-3-(3-(((S)-1-((2S,4R)-4-hydroxy-2-(((S)-1-(4-(4-methylthiazol-5-yl)phenyl)ethyl)carbamoyl)pyrrolidin-1-yl)-3,3-dimethyl-1-oxobutan-2-yl)amino)-3-oxopropanoyl)-6-oxodecahydropyrrolo[1,2-a][1,5]diazocin-5-yl)carbamoyl)-1H-indole-5-carbonyl)phosphonic acid] | > 1 µM | > 1 µM | > 1 µM |  |  | 
